# Test results published in US11912660B2, “S6K1 protein kinase inhibitors as cancer therapeutics” (Xavier University of Louisiana, priority 2020, dated 2024).
# “And” between values parts separate entries of the source, which are not always exact repeats. Equal entries are not always repeated. Where two headings read alike, the source gives them in different places.
# Key:
# Assay in all cases: SelectScreen kinase panel screening
# Format in all cases: biochemical
# EGFR (ErbB1) = EGFR (ErbB1) (Homo sapiens (Human), UniProt P00533)
# Source text: (§1) The complete list of the kinases given in Table 1 and their details can be found on the ThermoFisher website for Biochemical Kinase assays (thermofisher.com/us/en/home/industrial/pharma-biopharma/drug-discovery-development/target-and-lead-identification-and-validation/kinasebiology.html).
# PTK2B (FAK2) = PTK2B (FAK2) (Homo sapiens (Human), UniProt Q14289)
# Source text: as §1
# PTK2 (FAK) = PTK2 (FAK) (Homo sapiens (Human), UniProt Q05397)
# Source text: as §1
# MST1R (RON) = MST1R (RON) (Homo sapiens (Human), UniProt Q04912)
# Source text: as §1
# LCK = LCK (Homo sapiens (Human), UniProt P06239)
# Source text: as §1
# ABL1 = ABL1 (Homo sapiens (Human), UniProt P00519)
# Source text: as §1
# ALK = ALK (Homo sapiens (Human), UniProt Q9UM73)
# Source text: as §1
# EPHA2 = EPHA2 (Homo sapiens (Human), UniProt P29317)
# Source text: as §1
# MATK (HYL) = MATK (HYL) (Homo sapiens (Human), UniProt P42679)
# Source text: as §1
# AXL = AXL (Homo sapiens (Human), UniProt P30530)
# Source text: as §1
# FLT1 (VEGFR1) = FLT1 (VEGFR1) (Homo sapiens (Human), UniProt P17948)
# Source text: as §1
# JAK2 JH1 JH2 V617F = JAK2 JH1 JH2 V617F (Homo sapiens (Human), UniProt O60674, V617F)
# Source text: as §1
# SPHK1 = SPHK1 (Homo sapiens (Human), UniProt Q9NYA1); conditions: read-out: % Inhibition class
# Source text: as §1
# IKBKB (IKK beta) = IKBKB (IKK beta) (Homo sapiens (Human), UniProt O14920)
# Source text: as §1
# TYRO3 (RSE) = TYRO3 (RSE) (Homo sapiens (Human), UniProt Q06418)
# Source text: as §1
# [1] = target: PIK3CA/PIK3R1 (p110 alpha/p85 alpha) (Homo sapiens (Human), UniProt P42336); conditions: read-out: % Inhibition class
# Source text: as §1
# CDC42 BPB (MRCKB) = CDC42 BPB (MRCKB) (Homo sapiens (Human), UniProt Q9Y5S2)
# Source text: as §1
# GSG2 (Haspin) = GSG2 (Haspin) (Homo sapiens (Human), UniProt Q8TF76)
# Source text: as §1
# AKT2 (PKB beta) = AKT2 (PKB beta) (Homo sapiens (Human), UniProt P31751)
# Source text: as §1
# FGFR1 = FGFR1 (Homo sapiens (Human), UniProt P11362)
# Source text: as §1
# FES (FPS) = FES (FPS) (Homo sapiens (Human), UniProt P07332)
# Source text: as §1
# ERBB2 (HER2) = ERBB2 (HER2) (Homo sapiens (Human), UniProt P04626)
# Source text: as §1
# KDR (VEGFR2) = KDR (VEGFR2) (Homo sapiens (Human), UniProt P35968)
# Source text: as §1
# RET = RET (Homo sapiens (Human), UniProt P07949)
# Source text: as §1
# PDK1 Direct = PDK1 Direct (Homo sapiens (Human), UniProt O15530)
# Source text: as §1
# PRKCB2 (PKC beta II) = PRKCB2 (PKC beta II) (Homo sapiens (Human), UniProt P05771)
# Source text: as §1
# CDC42 BPA (MRCKA) = CDC42 BPA (MRCKA) (Homo sapiens (Human), UniProt Q5VT25)
# Source text: as §1
# PTK6 (Brk) = PTK6 (Brk) (Homo sapiens (Human), UniProt Q13882)
# Source text: as §1
# MET (cMet) = MET (cMet) (Homo sapiens (Human), UniProt P08581)
# Source text: as §1
# FGFR4 = FGFR4 (Homo sapiens (Human), UniProt P22455)
# Source text: as §1
# PLK1 = PLK1 (Homo sapiens (Human), UniProt P53350)
# Source text: as §1
# EPHA1 = EPHA1 (Homo sapiens (Human), UniProt P21709)
# Source text: as §1
# GSG2 (Haspin), sequence (Q8TF76 whole entry): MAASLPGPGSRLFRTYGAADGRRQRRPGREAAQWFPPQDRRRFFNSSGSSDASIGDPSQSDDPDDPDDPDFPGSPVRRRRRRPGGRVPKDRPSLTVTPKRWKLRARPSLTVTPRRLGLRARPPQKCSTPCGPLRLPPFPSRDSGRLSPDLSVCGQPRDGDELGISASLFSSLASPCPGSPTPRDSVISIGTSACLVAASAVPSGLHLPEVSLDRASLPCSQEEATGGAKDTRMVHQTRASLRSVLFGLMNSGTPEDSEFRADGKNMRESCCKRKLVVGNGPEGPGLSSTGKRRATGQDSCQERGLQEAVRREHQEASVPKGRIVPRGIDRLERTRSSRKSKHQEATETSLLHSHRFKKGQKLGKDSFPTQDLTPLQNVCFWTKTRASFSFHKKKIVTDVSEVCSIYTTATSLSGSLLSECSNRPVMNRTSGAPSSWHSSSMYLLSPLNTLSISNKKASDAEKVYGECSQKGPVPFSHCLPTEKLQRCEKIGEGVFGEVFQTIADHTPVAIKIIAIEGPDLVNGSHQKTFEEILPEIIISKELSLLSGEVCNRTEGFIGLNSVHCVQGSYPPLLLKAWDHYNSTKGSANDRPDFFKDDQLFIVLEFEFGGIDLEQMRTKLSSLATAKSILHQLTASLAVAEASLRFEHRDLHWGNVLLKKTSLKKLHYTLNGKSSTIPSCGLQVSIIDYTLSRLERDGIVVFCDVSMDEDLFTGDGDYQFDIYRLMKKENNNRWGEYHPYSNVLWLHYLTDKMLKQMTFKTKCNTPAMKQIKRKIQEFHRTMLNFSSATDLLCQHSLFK
# KDR (VEGFR2), sequence (P35968 20-1356): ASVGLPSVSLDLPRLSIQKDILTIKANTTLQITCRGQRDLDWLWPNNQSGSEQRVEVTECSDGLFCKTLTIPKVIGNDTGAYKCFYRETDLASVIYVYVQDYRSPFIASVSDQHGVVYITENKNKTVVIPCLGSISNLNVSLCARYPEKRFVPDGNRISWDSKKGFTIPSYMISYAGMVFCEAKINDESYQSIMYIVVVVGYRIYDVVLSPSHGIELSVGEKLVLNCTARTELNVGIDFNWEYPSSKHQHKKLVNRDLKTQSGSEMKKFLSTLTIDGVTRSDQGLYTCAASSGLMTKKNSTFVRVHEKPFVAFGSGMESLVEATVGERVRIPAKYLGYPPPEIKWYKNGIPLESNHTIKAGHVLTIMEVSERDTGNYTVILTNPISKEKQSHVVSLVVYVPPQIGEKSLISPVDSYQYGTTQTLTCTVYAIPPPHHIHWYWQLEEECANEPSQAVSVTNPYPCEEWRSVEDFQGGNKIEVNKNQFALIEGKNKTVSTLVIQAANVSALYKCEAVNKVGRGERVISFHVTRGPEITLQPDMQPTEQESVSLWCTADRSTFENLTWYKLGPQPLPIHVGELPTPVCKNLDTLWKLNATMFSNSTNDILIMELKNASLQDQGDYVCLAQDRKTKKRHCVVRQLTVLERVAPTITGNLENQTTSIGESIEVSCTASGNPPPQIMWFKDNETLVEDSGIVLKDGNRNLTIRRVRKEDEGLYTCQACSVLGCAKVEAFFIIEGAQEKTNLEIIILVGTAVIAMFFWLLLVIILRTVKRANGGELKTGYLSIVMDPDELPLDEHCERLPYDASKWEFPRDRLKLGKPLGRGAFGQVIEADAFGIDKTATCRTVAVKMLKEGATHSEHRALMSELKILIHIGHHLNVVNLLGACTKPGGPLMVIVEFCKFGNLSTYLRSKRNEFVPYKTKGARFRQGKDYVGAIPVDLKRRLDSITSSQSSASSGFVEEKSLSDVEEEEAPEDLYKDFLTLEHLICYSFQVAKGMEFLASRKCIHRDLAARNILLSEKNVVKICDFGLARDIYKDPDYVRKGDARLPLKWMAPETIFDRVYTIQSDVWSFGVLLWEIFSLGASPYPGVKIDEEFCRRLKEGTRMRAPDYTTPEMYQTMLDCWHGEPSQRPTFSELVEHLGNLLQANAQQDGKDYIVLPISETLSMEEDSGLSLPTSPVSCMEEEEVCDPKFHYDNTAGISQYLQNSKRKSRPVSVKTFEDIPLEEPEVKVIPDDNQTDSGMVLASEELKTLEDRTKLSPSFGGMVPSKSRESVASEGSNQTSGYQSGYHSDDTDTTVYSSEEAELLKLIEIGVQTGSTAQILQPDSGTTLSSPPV
# PTK2 (FAK), sequence (Q05397 whole entry): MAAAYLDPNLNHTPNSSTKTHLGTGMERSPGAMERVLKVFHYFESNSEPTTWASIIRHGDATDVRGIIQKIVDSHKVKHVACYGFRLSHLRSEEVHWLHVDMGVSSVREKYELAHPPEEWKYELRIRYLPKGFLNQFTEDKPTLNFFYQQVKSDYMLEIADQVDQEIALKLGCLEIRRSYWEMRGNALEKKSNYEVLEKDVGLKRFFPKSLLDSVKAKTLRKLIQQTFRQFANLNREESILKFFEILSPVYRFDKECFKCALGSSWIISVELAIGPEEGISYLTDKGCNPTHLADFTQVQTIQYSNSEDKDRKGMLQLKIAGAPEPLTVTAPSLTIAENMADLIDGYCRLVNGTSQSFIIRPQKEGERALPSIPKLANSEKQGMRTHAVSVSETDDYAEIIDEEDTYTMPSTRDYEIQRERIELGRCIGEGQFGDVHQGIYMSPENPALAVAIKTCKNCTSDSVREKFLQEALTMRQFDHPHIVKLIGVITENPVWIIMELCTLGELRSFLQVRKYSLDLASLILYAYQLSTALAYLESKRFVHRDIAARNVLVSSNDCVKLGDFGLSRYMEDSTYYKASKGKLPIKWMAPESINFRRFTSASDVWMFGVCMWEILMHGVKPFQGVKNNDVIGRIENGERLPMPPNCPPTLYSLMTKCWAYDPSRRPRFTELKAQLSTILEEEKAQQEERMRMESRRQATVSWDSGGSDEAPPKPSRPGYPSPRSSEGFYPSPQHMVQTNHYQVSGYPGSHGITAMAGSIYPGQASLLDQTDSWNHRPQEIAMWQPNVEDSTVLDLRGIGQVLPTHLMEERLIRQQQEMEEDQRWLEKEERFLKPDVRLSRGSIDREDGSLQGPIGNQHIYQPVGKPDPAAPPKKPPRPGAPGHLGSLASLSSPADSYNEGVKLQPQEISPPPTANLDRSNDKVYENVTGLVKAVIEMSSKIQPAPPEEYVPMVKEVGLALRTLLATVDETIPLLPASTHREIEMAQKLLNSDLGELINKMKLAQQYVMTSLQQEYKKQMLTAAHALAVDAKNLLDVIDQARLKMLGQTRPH
# MST1R (RON), sequence (Q04912 25-1400): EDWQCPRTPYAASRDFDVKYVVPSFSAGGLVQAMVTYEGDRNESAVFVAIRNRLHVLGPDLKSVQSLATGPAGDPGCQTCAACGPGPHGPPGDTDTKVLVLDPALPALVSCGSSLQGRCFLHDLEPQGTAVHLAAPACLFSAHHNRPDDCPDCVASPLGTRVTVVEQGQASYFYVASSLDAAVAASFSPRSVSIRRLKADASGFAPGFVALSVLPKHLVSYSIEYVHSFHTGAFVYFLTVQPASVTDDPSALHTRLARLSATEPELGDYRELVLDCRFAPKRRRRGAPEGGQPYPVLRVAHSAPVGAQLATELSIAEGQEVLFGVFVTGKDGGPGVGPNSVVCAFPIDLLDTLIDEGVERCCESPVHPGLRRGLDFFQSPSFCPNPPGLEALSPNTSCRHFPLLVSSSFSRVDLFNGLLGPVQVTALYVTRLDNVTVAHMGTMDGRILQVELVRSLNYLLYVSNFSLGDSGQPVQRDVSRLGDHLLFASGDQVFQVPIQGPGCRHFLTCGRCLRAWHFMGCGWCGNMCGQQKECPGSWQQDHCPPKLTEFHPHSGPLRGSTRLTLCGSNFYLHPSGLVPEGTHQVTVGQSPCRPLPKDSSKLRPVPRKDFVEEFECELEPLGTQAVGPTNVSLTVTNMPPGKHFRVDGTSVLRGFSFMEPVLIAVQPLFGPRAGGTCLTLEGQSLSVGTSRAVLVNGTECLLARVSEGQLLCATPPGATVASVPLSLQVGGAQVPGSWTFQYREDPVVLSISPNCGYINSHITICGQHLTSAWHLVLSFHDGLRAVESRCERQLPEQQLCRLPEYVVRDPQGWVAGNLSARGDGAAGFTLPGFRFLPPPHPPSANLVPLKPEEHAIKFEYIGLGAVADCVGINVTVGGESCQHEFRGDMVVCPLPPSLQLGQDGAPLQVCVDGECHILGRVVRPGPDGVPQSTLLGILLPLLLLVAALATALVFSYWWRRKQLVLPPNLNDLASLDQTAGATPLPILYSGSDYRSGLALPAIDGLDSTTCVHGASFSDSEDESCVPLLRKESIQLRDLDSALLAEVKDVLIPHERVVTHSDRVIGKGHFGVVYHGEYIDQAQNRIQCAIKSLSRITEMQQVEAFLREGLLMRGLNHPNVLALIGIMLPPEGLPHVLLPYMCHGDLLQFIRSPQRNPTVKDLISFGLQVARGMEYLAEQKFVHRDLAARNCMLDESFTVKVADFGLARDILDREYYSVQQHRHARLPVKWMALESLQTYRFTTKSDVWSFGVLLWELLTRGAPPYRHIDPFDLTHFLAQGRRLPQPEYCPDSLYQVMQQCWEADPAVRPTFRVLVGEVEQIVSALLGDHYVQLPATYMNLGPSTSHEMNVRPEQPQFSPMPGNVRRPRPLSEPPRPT
# LCK, sequence (P06239 whole entry): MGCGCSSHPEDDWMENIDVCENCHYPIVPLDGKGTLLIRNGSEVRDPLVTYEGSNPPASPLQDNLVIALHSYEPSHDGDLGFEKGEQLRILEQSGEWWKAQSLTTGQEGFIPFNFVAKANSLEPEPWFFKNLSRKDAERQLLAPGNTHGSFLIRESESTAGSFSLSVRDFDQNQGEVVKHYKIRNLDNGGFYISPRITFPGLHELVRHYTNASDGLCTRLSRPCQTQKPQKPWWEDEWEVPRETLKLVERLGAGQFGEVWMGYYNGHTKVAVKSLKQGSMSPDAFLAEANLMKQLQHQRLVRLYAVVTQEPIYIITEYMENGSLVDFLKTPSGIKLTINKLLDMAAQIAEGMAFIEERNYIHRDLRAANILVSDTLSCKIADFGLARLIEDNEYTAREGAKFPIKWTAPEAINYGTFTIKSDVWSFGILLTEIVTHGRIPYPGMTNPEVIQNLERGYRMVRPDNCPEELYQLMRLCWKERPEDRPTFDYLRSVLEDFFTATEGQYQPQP
smiles,measurement,setting,value
"Nc1cc(N)c2c(c1)C(=O)NC2=O [RJ1, 4,6-diaminoisoindoline-1,3-dione]",inhibition at 10 µM,EGFR (ErbB1); read-out: % Inhibition,12%
same,inhibition at 10 µM,EGFR (ErbB1); read-out: % Inhibition class,< 40%
same,inhibition at 10 µM,PTK2B (FAK2); read-out: % Inhibition,18%
same,inhibition at 10 µM,PTK2B (FAK2); read-out: % Inhibition class,< 40%
same,inhibition at 10 µM,PTK2 (FAK); read-out: % Inhibition,26%
same,inhibition at 10 µM,PTK2 (FAK); read-out: % Inhibition class,< 40%
same,inhibition at 10 µM,MST1R (RON); read-out: % Inhibition,27%
same,inhibition at 10 µM,MST1R (RON); read-out: % Inhibition class,< 40%
same,inhibition at 10 µM,LCK; read-out: % Inhibition,31%
same,inhibition at 10 µM,LCK; read-out: % Inhibition class,< 40%
same,inhibition at 10 µM,ABL1; read-out: % Inhibition,59%
same,inhibition at 10 µM,ABL1; read-out: % Inhibition class,40 to 80%
same,inhibition at 10 µM,ALK; read-out: % Inhibition,32%
same,inhibition at 10 µM,ALK; read-out: % Inhibition class,< 40%
same,inhibition at 10 µM,EPHA2; read-out: % Inhibition,16%
same,inhibition at 10 µM,EPHA2; read-out: % Inhibition class,< 40%
same,inhibition at 10 µM,MATK (HYL); read-out: % Inhibition,-5%
same,inhibition at 10 µM,MATK (HYL); read-out: % Inhibition class,< 40%
same,inhibition at 10 µM,AXL; read-out: % Inhibition,10%
same,inhibition at 10 µM,AXL; read-out: % Inhibition class,< 40%
same,inhibition at 10 µM,FLT1 (VEGFR1); read-out: % Inhibition,18%
same,inhibition at 10 µM,FLT1 (VEGFR1); read-out: % Inhibition class,< 40%
same,inhibition at 10 µM,JAK2 JH1 JH2 V617F; read-out: % Inhibition,6%
same,inhibition at 10 µM,JAK2 JH1 JH2 V617F; read-out: % Inhibition class,< 40%
same,inhibition at 10 µM,SPHK1,< 40%
same,inhibition at 10 µM,IKBKB (IKK beta); read-out: % Inhibition,16%
same,inhibition at 10 µM,IKBKB (IKK beta); read-out: % Inhibition class,< 40%
same,inhibition at 10 µM,TYRO3 (RSE); read-out: % Inhibition,25%
same,inhibition at 10 µM,TYRO3 (RSE); read-out: % Inhibition class,< 40%
same,inhibition at 10 µM,[1],< 40%
same,inhibition at 10 µM,CDC42 BPB (MRCKB); read-out: % Inhibition,0%
same,inhibition at 10 µM,CDC42 BPB (MRCKB); read-out: % Inhibition class,< 40%
same,% Inhibition,GSG2 (Haspin); 10 μM,34% and 65%
same,inhibition at 10 µM,GSG2 (Haspin); read-out: % Inhibition class,< 40%
same,inhibition at 10 µM,AKT2 (PKB beta); read-out: % Inhibition,9%
same,inhibition at 10 µM,AKT2 (PKB beta); read-out: % Inhibition class,< 40%
same,inhibition at 10 µM,FGFR1; read-out: % Inhibition,51%
same,inhibition at 10 µM,FGFR1; read-out: % Inhibition class,40 to 80%
same,inhibition at 10 µM,FES (FPS); read-out: % Inhibition,36%
same,inhibition at 10 µM,FES (FPS); read-out: % Inhibition class,< 40%
same,inhibition at 10 µM,ERBB2 (HER2); read-out: % Inhibition,6%
same,inhibition at 10 µM,ERBB2 (HER2); read-out: % Inhibition class,< 40%
same,inhibition at 10 µM,KDR (VEGFR2); read-out: % Inhibition,56%
same,inhibition at 10 µM,KDR (VEGFR2); read-out: % Inhibition class,40 to 80%
same,inhibition at 10 µM,RET; read-out: % Inhibition,79%
same,inhibition at 10 µM,RET; read-out: % Inhibition class,40 to 80%
same,inhibition at 10 µM,PDK1 Direct; read-out: % Inhibition,33%
same,inhibition at 10 µM,PDK1 Direct; read-out: % Inhibition class,< 40%
same,inhibition at 10 µM,PRKCB2 (PKC beta II); read-out: % Inhibition,23%
same,inhibition at 10 µM,PRKCB2 (PKC beta II); read-out: % Inhibition class,< 40%
same,inhibition at 10 µM,CDC42 BPA (MRCKA); read-out: % Inhibition,0%
same,inhibition at 10 µM,CDC42 BPA (MRCKA); read-out: % Inhibition class,< 40%
same,inhibition at 10 µM,PTK6 (Brk); read-out: % Inhibition,4%
same,inhibition at 10 µM,PTK6 (Brk); read-out: % Inhibition class,< 40%
same,inhibition at 10 µM,MET (cMet); read-out: % Inhibition,-4%
same,inhibition at 10 µM,MET (cMet); read-out: % Inhibition class,< 40%
same,inhibition at 10 µM,FGFR4; read-out: % Inhibition,20%
same,inhibition at 10 µM,FGFR4; read-out: % Inhibition class,< 40%
same,inhibition at 10 µM,PLK1; read-out: % Inhibition,9%
same,inhibition at 10 µM,PLK1; read-out: % Inhibition class,< 40%
same,inhibition at 10 µM,EPHA1; read-out: % Inhibition,15%
same,inhibition at 10 µM,EPHA1; read-out: % Inhibition class,< 40%
